Measurements from US7608278B2, “Formulations of hydrophobic proteins in an immunogenic composition having improved tolerability” (priority 2003, dated 2009).
Where “and” joins values, the source holds several entries; their conditions need not be identical. Equal entries are not always repeated. Where two headings read alike, the source gives them in different places.

Key:
rat footpad = assay: Rat footpad (paw-lick) pain test; assay type: in vivo, Male Sprague Dawley rats; conditions: for Mean time pain response, 0-10 min. / Mean time pain response, 10-20 min.: 8 rats per group; for Pain response in the rat footpad model (result in words): Examples 1-7 and 10, footpad injection 0.1 or 0.2 ml; for Pain in rat footpad model, survey of detergents (result in words): Example 9, injected at concentrations above the CMC for the detergent
From the text: An animal model, the rat paw-lick (footpad) model, which has previously been employed for detection of pain associated with the injection of antibiotics, was utilized (Celozzi et al. J. Pharmacol. Methods, 1980, 4:[…]; Comerski et al., Fundamental and Appl. Toxicology, 1986, 6:335-338). This model monitors the amount of time the rats spend lifting, licking, and biting the injected paw.
The “rat footpad pain” or “rat paw-lick” test or model as used herein refers to a test or model used to determine the pain induced by a specific formulation upon injection. The test consists of uniformly injecting into the footpad of rats of the same species and approximately the same weights compositions to be assessed as pain causing agents along with compositions known to cause pain at the injection site, as well as compositions known not to cause pain at the injection site. A statistically significant number of animals are to be used for each test and control formulation. After the injection, the animal is placed in a cage with mirrors and then observed by a technician (preferably blinded as to the identity of the immunogenic composition) for 20 to 30 minutes for flinching, lifting, licking, or biting of the injected paw. The amount of time spent on these pain response behaviors are recorded using a stopwatch and summed for 10 minute periods.
The phrase “less painful” as used herein refers to an alteration in the composition that leads to a reduction in the length of time or intensity, or both, of a pain response compared to that of the non-altered composition as measured by the rat footpad pain test. The phrase “50% reduction in pain” as used herein refers to a 50% reduction in the amount of time spent on pain responses as measured by the rat footpad pain test when comparing altered and unaltered immunogenic compositions administered in equal injection volumes by the same means and observed for the same length of time. The number of animals in each group is a statistically significant number. Observation of the different injection groups is preferably done by the same technician and who is blinded as to the identification of the compositions.
Rat footpad pain testing. The immunogenic composition samples were brought to room temperature prior to being administered to the animals. The animals were injected by a technician who was not involved in the monitoring of pain responses. Male Sprague Dawley rats (Crl:CD®(SD)IGS BR, 50-100 g at arrival) from Charles River Laboratories Inc. (Kingston, N.Y.) were used for all studies. The rats were acclimated at the research facility for approximately one week prior to initiation of a study, at which point they weighed 100-150 g. The paw to be injected was examined prior to injection to verify absence of any injury. The animal was then restrained in the technician's arm such that the hind legs extended forward. The right rear leg was grasped just above the hock joint and pressure was exerted to hold the paw straight out, with plantar (sole) facing upwards. Using a new 23 gauge needle for each animal, the operator inserted the bevel side up in the center of paw, parallel to the surface of the paw, until the needle was in the center of the pad. The material was then injected and the needle left in place for 3-5 seconds prior to withdrawal, to minimize leakage from the injection site. […]
The animal was then placed in a cage with 3 mirrors (adjoining sides and floor) and observed by a different technician (blinded as to the identity of the immunogenic composition) for 30 minutes for flinching, lifting, licking, or biting of the injected paw. The length of time spent on these pain response behaviors was recorded using a stopwatch and summed for 10 minute periods. […]
Statistical Analysis. Results were analyzed using an ANOVA method adjusting for multiple comparisons that compared each treatment group with control group who received buffer alone (either PBS or TBS). […]

[1] = known critical micelle concentrations, cited from earlier work
[2] = Example 1 (Table 1), 0.1 ml footpad injection, 6 rats per group
[3] = Example 4 (Table 7), 0.2 ml injection (formalin 0.1 ml), 10 rats per group
[4] = Example 6 (Table 11), 0.2 ml injection (formalin 0.1 ml), 10 rats per group
[5] = Example 7 (Table 13), 0.2 ml injection (formalin 0.1 ml), 10 rats per group
[6] = Example 9 (Table 15), concentration 5%, 100 μl
[7] = Example 9 (Table 16), concentration 5%, 100 μl
[8] = Example 9 (Table 17), concentration 5%, 100 μl
[9] = Example 9 (Table 16), concentration 0.9%, 200 μl
[10] = Example 9 (Table 17), concentration 0.8%, 200 μl
[11] = Example 9 (Table 17), concentration 7 mM, 200 μl
[12] = Example 9 (Table 16), concentration 1%, 200 μl
[13] = Example 9 (Table 16), concentration 0.025%, 200 μl
[14] = Example 9 (Table 15), detergent concentration 0.05%, 200 μl
[15] = Example 9 (Table 15), detergent concentration 0.05%, 200 μl, listed as Zw3-14
[16] = Example 9 (Table 16), concentration 0.02%, 200 μl
[17] = Example 9 (Table 17), concentration 0.5%, 200 μl

## C=O [5% Formalin]
Rat footpad; [2]
  Time pain response, Mean, 0-10 min.: 274 s
  Time pain response, Mean, 10-20 min.: 312 sec
  Time pain response, Mean, 20-30 min.: 450 s
  Time pain response, Median, 10-20 min.: 292 sec
  Time pain response, Median, 20-30 min.: 448 s
Rat footpad; Example 1 (Table 1), 0.1 ml footpad injection, 6 rats per group, PBS not pyrogen-free
  Time pain response, Median, 0-10 min.: 311 s
Rat footpad; [3]
  0-10 min. time pain response, Mean: 178 s
  0-10 min. time pain response, Median: 162 s
  10-20 min. time pain response, Mean: 174 sec
  10-20 min. time pain response, Median: 173 sec
Rat footpad; [4]
  0-10 min. time pain response, Mean: 225 s
  0-10 min. time pain response, Median: 219 s
  10-20 min. time pain response, Mean: 167 sec
  10-20 min. time pain response, Median: 181 sec
Rat footpad; [5]
  0-10 min time pain response, Mean: 252 s
  0-10 min time pain response, Median: 233 s
  10-20 min. time pain response, Mean: 435 sec
  10-20 min. time pain response, Median: 448 sec
Rat footpad; [6]
  Mean time pain response, 0-10 min.: 161.3 s
  Mean time pain response, 10-20 min.: 313.5 sec.
Rat footpad; [7]
  Mean time pain response, 0-10 min.: 114 s
  Mean time pain response, 10-20 min.: 218 sec.
Rat footpad; [8]
  Mean time pain response, 0-10 min.: 272.5 s
  Mean time pain response, 10-20 min.: 280.4 sec.
Rat footpad
  Pain response in the rat footpad model (result in words): induced the highest pain response among the compositions tested

## C[C@H](CCC(=O)N(CCCNC(=O)[C@H](O)[C@@H](O)[C@H](O)[C@H](O)CO)CCCNC(=O)[C@H](O)[C@@H](O)[C@H](O)[C@H](O)CO)[C@H]1CC[C@H]2[C@@H]3[C@H](O)C[C@@H]4C[C@H](O)CC[C@]4(C)[C@H]3C[C@H](O)[C@]12C [BigCHAP ®, N,N-bis(3-D-glucon-amidopropyl)cholamide]
[1]
  CMC: 3 to 4 mM
  CMC (%): 0.3%

## C[C@H](CCC(=O)NCCC[N+](C)(C)CCCS(=O)(=O)[O-])[C@H]1CC[C@H]2[C@@H]3[C@H](O)C[C@@H]4C[C@H](O)CC[C@]4(C)[C@H]3C[C@H](O)[C@]12C [CHAPS ®, 3-[(3-Cholamidopropyl)dimethylammonio]-1-propanesulfonate]
Rat footpad; [9]
  Mean time pain response, 0-10 min.: 351 s
  Mean time pain response, 10-20 min.: 114 sec.
Rat footpad
  Pain in rat footpad model, survey of detergents (result in words): caused significant pain
  Pain response in the rat footpad model (result in words): cause considerable pain
[1]
  CMC: 6 to 10 mM
  CMC (%): 0.18-0.62%

## CCCCCCCCCCCCO[C@@H]1O[C@H](CO)[C@@H](O[C@H]2O[C@H](CO)[C@@H](O)[C@H](O)[C@H]2O)[C@H](O)[C@H]1O [Dodecyl maltoside, n-Dodecyl-beta-D-maltoside]
Rat footpad; [10]
  Mean time pain response, 0-10 min.: 298.0 s
  Mean time pain response, 10-20 min.: 141.0 sec.
Rat footpad
  Pain in rat footpad model, survey of detergents (result in words): induced pain

## CCCCCCCCCC(=O)N(C)C[C@H](O)[C@@H](O)[C@H](O)[C@H](O)CO [Mega10, Decanoyl-N-methylglucamide]
Rat footpad; [11]
  Mean time pain response, 0-10 min.: 28.8 s
  Mean time pain response, 10-20 min.: 31.0 sec.

## CCCCCCCCO[C@@H]1O[C@H](CO)[C@@H](O)[C@H](O)[C@H]1O [Octyl glucoside, n-Octyl-b-D-glucopyranoside]
Rat footpad; [12]
  Mean time pain response, 0-10 min.: 48 s
  Mean time pain response, 10-20 min.: 108 sec.
Rat footpad
  Pain in rat footpad model, survey of detergents (result in words): induced pain
  Pain response in the rat footpad model (result in words): cause considerable pain

## CCCCCCCC/C=C\CCCCCCCC(=O)OCCOCC(OCCO)C1OCC(OCCO)C1OCCO (centres unmarked) [TWEEN 80, Polyoxyethylene (20) sorbitan monooleate]
Rat footpad; [13]
  Mean time pain response, 0-10 min.: 3 s
  Mean time pain response, 10-20 min.: 6 sec.
Rat footpad
  Pain in rat footpad model, survey of detergents (result in words): do not cause significant pain
[1]
  CMC: 0.012 mM
  CMC (%): 0.0016%

## CCCCCCCC[N+](C)(C)CCCS(=O)(=O)[O-] [Zwittergent ® 3-8, n-Octyl-N,N-dimethyl-3-ammonio-1-propanesulfonate]
[1]
  CMC: 330 mM
  CMC (%): 4.6-10.9%

## CCCCCCCCCC[N+](C)(C)CCCS(=O)(=O)[O-] [Zwittergent ® 3-10, n-Decyl-N,N-dimethyl-3-ammonio-1-propanesulfonate]
Rat footpad; [10]
  Mean time pain response, 0-10 min.: 300.6 s
  Mean time pain response, 10-20 min.: 260.5 sec.
Rat footpad
  Pain in rat footpad model, survey of detergents (result in words): caused significant pain
[1]
  CMC: 25 to 40 mM
  CMC (%): 0.43-1.23%

## CCCCCCCCCCCC[N+](C)(C)CCCS(=O)(=O)[O-] [Zwittergent ® 3-12, n-Dodecyl-N,N-dimethyl-3-ammonio-1-propanesulfonate]
Rat footpad; [14]
  Mean time pain response, 0-10 min.: 295.3 s
  Mean time pain response, 10-20 min.: 139.8 sec.
Rat footpad
  Pain in rat footpad model, survey of detergents (result in words): caused significant pain
  Pain response in the rat footpad model (result in words): responsible for the pain on injection
[1]
  CMC: 2 to 4 mM
  CMC (%): 0.047-0.13%

## CCCCCCCCCCCCCC[N+](C)(C)CCCS(=O)(=O)[O-] [Zwittergent ® 3-14, n-Tetradecyl-N,N-dimethyl-3-ammonio-1-propanesulfonate]
Rat footpad; [15]
  Mean time pain response, 0-10 min.: 44.7 s and 37.8 s
  Mean time pain response, 10-20 min.: 33.6 sec. and 30.1 sec.
Rat footpad
  Pain in rat footpad model, survey of detergents (result in words): caused significant pain
  Pain response in the rat footpad model (result in words): responsible for the pain on injection
[1]
  CMC: 0.1 to 0.4 mM
  CMC (%): 0.004-0.015%
[1]; listed as Zw 3-14
  CMC (%): 0.004%-0.015%

## Polyoxyethylene (35) Lauryl Ether [BRIJ]
Rat footpad; [16]
  Mean time pain response, 0-10 min.: 1 s
  Mean time pain response, 10-20 min.: 0 sec.
Rat footpad
  Pain in rat footpad model, survey of detergents (result in words): do not cause significant pain
[1]
  CMC: 0.09 mM
  CMC (%): 0.011%

## Sodium deoxycholate
Rat footpad; [17]
  Mean time pain response, 0-10 min.: 307.0 s
  Mean time pain response, 10-20 min.: 121.9 sec.
